Results published in patent publication US20240189263A1, “DERIVATIZED C60 MOLECULES AND METHODS AND MATERIALS FOR USING DERIVATIZED C60 MOLECULES TO REDUCE RADIATION INJURY” (Mayo Foundation for Medical Education and Research, priority 2021, published 2024).

Experiments:
Format in all cases: cell-based
[1] = test system: N2A cells; experiment: ROS by H2-DCFDA probe after proton irradiation, N2A; settings: 50 μM, positive control
Source text: (§1) Cell lines were irradiated using pencil beam scanning (PBS) proton beams produced by IBA ProteusOne (Ion Beam Applications, Louvain-la-Neuve, Belgium). Single layer mono-energy 227 MeV pencil beams with uniform spacing of 0.25 cm between each spot were used to create a large field size with uniform dose distribution (±2%) that encompassed all sample wells containing the cells. A fixed source to surface distance (SSD) setup and gantry at 180 degrees was used to delivery 0.5, 1, 2, 4, and 6 Gray (Gy) dose of ionizing radiation to cells. The cells were place at an 8 cm depth, with a linear energy transfer (LET) of approximately 1.7 keV/μm, using solid water slabs as a buildup. […] The monitor units needed to deliver the intended dose were calculated using the measure dose/MU values.
(§2) Post radiation, 2′,7′-dichlorodihydrofluorescein diacetate (H2-DCFDA) probes were used to measure the level of reactive oxygen species (ROS) post-proton radiation (1 Gy, 230 MeV proton beam). […] A fluorescence microplate reader (SpectraMax M5, Molecular Devices Corporation, California, USA) was used to detect the generation of fluorescent DCF molecules with an excitation filter of 485 nm and an emission filter of 525 nm, with a 515 nm cutoff filter. […] Following irradiation, the cells were transported back for plate reading, 30 minutes post radiation.

[2] = test system: HUVEC cells; experiment: ROS by H2-DCFDA probe after proton irradiation, HUVEC; settings: 50 μM, positive control
Source text: as §1, §2

[3] = test system: NIH3T3 cells; experiment: ROS by H2-DCFDA probe after proton irradiation, NIH3T3; settings: NIH3T3, 50 μM, positive control
Source text: as §1, §2

[4] = test system: HepG2 cells; experiment: ROS by H2-DCFDA probe after proton irradiation, HepG2; settings: control HepG2 cells, 50 μM, positive control
Source text: as §1, §2

Measured: ROS (H2-DCFDA fluorescence)

CC(=O)N[C@@H](CS)C(=O)O [NAC, N-acetyl cysteine, reference compound]
decrease in ROS: all assays above
